Experimental data: US7531555B2, “Compositions and methods for selective inhibition of nicotine acetylcholine receptors” (University of Florida Research Foundation, Inc., priority 2003, dated 2009)
Where two headings read alike, the source gives them in different places.

Columns and labels:
rats = test: Nicotine drug discrimination in rats; type: in vivo
Experimental: Animals. Male ICR mice (20-25 g) obtained from Harlan Laboratories (Indianapolis, Ind.) were used throughout the study. Animals were housed in groups of six and had free access to food and water. Adult, male Long-Evans rats (350-460 g), obtained from Harlan (Dublin, Va.), were individually housed in a temperature-controlled (20-22° C.) environment with a 12-hour light-dark cycle (lights on at 7 a.m.). Rats were maintained within the indicated weight range by restricted post-session feeding and had ad libitum water in their home cages. Rats were drug-naive at the beginning of the study. Animals were housed in an AALAC approved facility and the study was approved by the Institutional Animal Care and Use Committee of Virginia Commonwealth University.
Statistical analysis. Statistical analysis of all analgesic and in vivo studies was performed using either t-test or analysis of variance (ANOVA) with Tukey's test post hoc test when appropriate. All differences were considered significant at p<0.05. AD50 values with 95% CL for behavioral data were calculated by unweighted least-squares linear regression as described by Tallarida and Murray (Tallarida and Murray Manual of Pharmacological Calculations with Computer Programs. 1987, Springer-Verlag, New York).

[1] = molecular target: T1, mouse muscle-type (α1β1εδ) nAChR (Mus musculus, UniProt P02716+P04756+P09690+P20782); test: Voltage clamp of Xenopus oocytes expressing muscle-type nAChR; type: cell-based
T1 construct: expressed in transfected cells; host or cells: Xenopus laevis oocytes injected with subunit cRNAs; clones from Dr. Jim Boulter (UCLA)
T1 sequence (P04756 21-457): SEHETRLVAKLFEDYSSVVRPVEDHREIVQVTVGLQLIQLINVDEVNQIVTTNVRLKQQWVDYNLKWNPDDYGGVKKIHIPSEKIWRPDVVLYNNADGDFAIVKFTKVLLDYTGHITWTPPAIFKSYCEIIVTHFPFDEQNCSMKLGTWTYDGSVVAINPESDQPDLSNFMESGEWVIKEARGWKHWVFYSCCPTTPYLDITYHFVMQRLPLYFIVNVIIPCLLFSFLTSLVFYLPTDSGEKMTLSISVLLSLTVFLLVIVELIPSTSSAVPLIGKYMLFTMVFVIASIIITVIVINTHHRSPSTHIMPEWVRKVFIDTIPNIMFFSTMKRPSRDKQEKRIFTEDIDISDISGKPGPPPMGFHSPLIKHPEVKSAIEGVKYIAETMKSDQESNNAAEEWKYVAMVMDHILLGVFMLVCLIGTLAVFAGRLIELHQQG
T1 sequence (P09690 24-501): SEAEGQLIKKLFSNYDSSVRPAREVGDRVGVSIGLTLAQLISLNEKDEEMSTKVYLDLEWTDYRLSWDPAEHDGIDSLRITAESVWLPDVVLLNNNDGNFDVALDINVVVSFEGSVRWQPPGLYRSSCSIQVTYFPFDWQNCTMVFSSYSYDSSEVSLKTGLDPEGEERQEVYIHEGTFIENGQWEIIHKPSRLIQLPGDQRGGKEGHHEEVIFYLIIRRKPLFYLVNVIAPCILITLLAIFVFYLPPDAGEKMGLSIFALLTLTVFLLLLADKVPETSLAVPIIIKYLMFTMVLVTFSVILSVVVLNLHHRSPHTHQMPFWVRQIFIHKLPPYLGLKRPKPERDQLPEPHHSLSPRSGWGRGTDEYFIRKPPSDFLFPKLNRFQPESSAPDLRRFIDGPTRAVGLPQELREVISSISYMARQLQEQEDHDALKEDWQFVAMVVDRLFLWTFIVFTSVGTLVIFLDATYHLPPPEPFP
T1 sequence (P20782 21-493): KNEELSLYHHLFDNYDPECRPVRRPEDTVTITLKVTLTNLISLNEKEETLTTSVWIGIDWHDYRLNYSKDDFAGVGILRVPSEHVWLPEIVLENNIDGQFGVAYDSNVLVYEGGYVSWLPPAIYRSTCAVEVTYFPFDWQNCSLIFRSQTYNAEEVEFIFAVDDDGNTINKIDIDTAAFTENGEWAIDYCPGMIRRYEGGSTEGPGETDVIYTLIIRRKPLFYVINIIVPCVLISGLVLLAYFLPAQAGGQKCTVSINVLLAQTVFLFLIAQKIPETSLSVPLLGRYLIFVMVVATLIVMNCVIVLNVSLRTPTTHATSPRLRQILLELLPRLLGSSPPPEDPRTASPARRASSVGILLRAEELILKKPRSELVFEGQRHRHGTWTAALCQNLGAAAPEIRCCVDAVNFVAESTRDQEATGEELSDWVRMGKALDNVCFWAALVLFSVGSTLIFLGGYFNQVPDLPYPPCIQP
T1 sequence (P02716 25-520): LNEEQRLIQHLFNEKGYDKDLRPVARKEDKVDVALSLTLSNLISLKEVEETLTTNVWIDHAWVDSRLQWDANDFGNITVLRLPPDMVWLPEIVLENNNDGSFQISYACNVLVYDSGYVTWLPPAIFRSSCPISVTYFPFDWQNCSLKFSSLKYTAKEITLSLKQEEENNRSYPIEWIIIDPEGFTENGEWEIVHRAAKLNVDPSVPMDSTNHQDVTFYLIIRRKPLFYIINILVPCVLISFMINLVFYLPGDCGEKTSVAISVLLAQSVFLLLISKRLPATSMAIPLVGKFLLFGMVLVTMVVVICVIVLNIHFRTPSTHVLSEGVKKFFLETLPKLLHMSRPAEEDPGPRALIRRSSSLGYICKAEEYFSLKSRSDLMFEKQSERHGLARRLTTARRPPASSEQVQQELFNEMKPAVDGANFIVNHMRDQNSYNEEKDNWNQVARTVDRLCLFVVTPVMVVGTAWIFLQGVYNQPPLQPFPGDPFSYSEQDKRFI

[2] = molecular target: T2, α7 homomeric neuronal nAChR (Rattus norvegicus, UniProt Q05941); test: Voltage clamp of Xenopus oocytes expressing α7 nAChR; type: cell-based
T2 construct: expressed in transfected cells; host or cells: Xenopus laevis oocytes injected with cRNA; clone from Dr. Jim Boulter (UCLA)
T2 sequence (Q05941 23-502): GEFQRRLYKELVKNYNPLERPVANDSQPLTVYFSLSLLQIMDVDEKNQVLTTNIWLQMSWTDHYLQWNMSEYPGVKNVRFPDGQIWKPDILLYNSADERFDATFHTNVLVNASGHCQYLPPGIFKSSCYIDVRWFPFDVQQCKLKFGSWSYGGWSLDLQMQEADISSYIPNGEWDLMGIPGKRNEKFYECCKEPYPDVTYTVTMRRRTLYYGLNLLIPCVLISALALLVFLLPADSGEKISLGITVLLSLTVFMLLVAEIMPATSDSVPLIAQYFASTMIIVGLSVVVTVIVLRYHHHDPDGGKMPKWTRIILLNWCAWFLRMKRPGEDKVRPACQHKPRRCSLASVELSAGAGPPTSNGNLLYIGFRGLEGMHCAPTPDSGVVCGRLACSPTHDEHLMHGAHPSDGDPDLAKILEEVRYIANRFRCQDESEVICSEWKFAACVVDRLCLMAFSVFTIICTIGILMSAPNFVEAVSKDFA
Experimental: (§1) Mature (>9 cm) female Xenopus laevis African frogs (NASCO, Ft. Atkinson, Wis.) were used as a source of oocytes. Prior to surgery, frogs were anesthetized by placing the animal in a 1.5 g/l solution of MS222 (3-aminobenzoic acid ethyl ester) for 30 minutes. Oocytes were removed from an incision made in the abdomen.
(§2) In order to remove the follicular cell layer, harvested oocytes were treated with 1.25 mg/ml collagenase from Worthington Biochemical Corporation (Freehold, N.J.) for 2 hours at room temperature in calcium-free Barth's solution (88 mM NaCl, 10 mM HEPES pH 7.6, 0.33 mM MgSO4, 0.1 mg/ml gentamicin sulfate). Subsequently, stage 5 oocytes were isolated and injected with 50 nl (5-20 ng) each of the appropriate subunit cRNAs. Recordings were made 2 to 15 days after injection.
(§3) Rat neuronal nAChR clones and mouse muscle nAChR cDNA clones were used. The wild-type clones were obtained from Dr. Jim Boulter (UCLA). The rat α6/3 (Dowell et al. J Neurosci, 2003, 23:8445-8452) clone was obtained from Michael McIntosh (University of Utah) and expressed in Xenopus oocytes in combinations with rat β2 and β3. […] The TM2 domain is understood to line the pore of the channel, with alpha helix structure. The 7′ position may actually be directed away from the actual pore lining, but this residue is highly conserved in all of the nAChR. It is valine in all of them except α9 (isoleucine) and β1, where it is alanine. The TM2 mutation in the α6/3 chimera was corrected by using QuickChange (Stratagene) according to their protocols. The corrected α6/3 chimera sequence was confirmed by restriction diagnostics and by automated fluorescent sequencing (University of Florida core facility). The corrected clone was expressed as above in Xenopus oocytes with β2 and β3 and compared to the wild-type α3 co-expressed with β2 and β3.
(§4) After linearization and purification of cloned cDNAs, RNA transcripts were prepared in vitro using the appropriate mMessage mMachine kit from Ambion Inc. (Austin, Tex.).
(§5) Electrophysiology. The majority of experiments were conducted using OpusXpress 6000A (Axon Instruments, Union City Calif.). OpusXpress is an integrated system that provides automated impalement and voltage clamp of up to eight oocytes in parallel. Cells were automatically perfused with bath solution, and agonist solutions were delivered from a 96-well plate. Both the voltage and current electrodes were filled with 3 M KCl. The agonist solutions were applied via disposable tips, which eliminated any possibility of cross-contamination. Drug applications alternated between ACh controls and experimental applications. Flow rates were set at 2 ml/min for experiments with α7 receptors and 4 ml/min for other subtypes. Cells were voltage-clamped at a holding potential of −60 mV. Data were collected at 50 Hz and filtered at 20 Hz. Agonist applications were 12 seconds in duration followed by 181-second washout periods for α7 receptors and 8 seconds with 241-second wash periods for other subtypes. For some experiments, particularly under conditions where residual inhibition precluded making repeated measurements from single cells (see below), manual oocyte recordings were made as previously described (Papke and Papke Br J of Pharmacol, 2002, 137:49-61). In brief, Warner Instruments (Hamden, Conn.) OC-725C oocyte amplifiers were used, and data were acquired with a minidigi or digidata 1200A with pClamp9 software (Axon Instruments). Sampling rates were between 10 and 20 Hz and the data were filtered at 6 Hz. Cells were voltage clamped at a holding potential of −50 mV.
(§6) Experimental protocols and data analysis. Each oocyte received two initial control applications of ACh, an experimental drug application (or co-application of ACh and TMPH), and then follow-up control application(s) of ACh. The control ACh concentrations for α1β1γδ, α3β4, α4β2, α3β2, α3β2α5, α3β2β3, α6/3β2β3 α6β4β3 and α7, receptors were 30 μM, 100 μM, 10 μM, 30 μM, 1 μM 100 μM 100 μM 100 μM and 300 μM, respectively. […]

Rat α3β4 = molecular target: T3, Rat α3β4 (Rattus norvegicus, UniProt P04757+P12392); test: Voltage clamp of Xenopus oocytes expressing α3β4 nAChR; type: cell-based
T3 construct: expressed in transfected cells; host or cells: Xenopus laevis oocytes injected with subunit cRNAs; clones from Dr. Jim Boulter (UCLA)
T3 sequence (P04757 26-499): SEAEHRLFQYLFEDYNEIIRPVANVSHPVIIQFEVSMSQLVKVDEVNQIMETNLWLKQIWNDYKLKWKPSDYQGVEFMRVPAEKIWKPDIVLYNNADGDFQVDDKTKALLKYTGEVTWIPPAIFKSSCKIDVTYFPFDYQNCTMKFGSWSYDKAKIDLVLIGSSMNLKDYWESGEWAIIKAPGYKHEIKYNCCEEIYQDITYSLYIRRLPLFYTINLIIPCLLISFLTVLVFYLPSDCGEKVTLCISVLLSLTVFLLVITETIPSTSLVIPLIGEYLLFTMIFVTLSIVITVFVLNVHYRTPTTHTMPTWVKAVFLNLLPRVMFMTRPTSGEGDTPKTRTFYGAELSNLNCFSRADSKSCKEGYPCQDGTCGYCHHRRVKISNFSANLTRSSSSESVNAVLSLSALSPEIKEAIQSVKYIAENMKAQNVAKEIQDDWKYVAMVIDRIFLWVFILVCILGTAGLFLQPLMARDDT
T3 sequence (P12392 21-495): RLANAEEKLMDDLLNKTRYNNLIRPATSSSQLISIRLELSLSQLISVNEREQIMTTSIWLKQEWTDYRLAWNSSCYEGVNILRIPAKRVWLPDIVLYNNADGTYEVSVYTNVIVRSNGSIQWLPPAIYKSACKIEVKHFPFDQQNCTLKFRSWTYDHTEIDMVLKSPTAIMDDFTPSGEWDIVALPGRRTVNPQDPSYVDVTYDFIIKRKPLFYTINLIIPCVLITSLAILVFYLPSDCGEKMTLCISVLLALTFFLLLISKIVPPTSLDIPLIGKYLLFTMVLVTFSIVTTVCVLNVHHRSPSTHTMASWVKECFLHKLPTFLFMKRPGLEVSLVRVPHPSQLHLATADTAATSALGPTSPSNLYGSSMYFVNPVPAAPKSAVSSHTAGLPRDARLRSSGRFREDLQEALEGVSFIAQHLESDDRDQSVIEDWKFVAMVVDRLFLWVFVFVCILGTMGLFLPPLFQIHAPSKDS
Experimental: as §1, §2, §3, §4, §5, §6

Rat α6/3β2β3 = molecular target: T4, Rat α6/3β2β3 (Rattus norvegicus, UniProt P04757+P12390+P12391+P43143); test: Voltage clamp of Xenopus oocytes expressing α6/3 chimera with β2 and β3; type: cell-based
T4 construct: evaluation of the effects of the α6 extracellular domain; remainder of rat α3 subunit (transmembrane and intracellular part); expressed in transfected cells; host or cells: Xenopus laevis oocytes injected with subunit cRNAs; α6/3 clone from Michael McIntosh (University of Utah), corrected in house by QuickChange
T4 sequence (P43143+P04757 fused with the stated changes): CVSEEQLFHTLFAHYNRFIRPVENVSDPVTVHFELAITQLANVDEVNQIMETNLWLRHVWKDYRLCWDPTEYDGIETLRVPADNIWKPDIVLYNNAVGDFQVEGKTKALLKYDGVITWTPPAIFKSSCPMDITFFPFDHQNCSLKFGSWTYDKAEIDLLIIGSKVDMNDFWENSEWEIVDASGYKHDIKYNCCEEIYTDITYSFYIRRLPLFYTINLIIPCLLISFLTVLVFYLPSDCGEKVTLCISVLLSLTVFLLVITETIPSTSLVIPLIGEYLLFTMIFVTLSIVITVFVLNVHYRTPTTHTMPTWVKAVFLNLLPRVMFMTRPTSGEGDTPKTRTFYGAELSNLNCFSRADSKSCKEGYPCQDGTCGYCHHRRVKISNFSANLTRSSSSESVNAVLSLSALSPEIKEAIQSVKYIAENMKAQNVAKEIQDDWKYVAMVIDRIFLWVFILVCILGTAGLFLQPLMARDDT
T4 sequence (P12390 25-500): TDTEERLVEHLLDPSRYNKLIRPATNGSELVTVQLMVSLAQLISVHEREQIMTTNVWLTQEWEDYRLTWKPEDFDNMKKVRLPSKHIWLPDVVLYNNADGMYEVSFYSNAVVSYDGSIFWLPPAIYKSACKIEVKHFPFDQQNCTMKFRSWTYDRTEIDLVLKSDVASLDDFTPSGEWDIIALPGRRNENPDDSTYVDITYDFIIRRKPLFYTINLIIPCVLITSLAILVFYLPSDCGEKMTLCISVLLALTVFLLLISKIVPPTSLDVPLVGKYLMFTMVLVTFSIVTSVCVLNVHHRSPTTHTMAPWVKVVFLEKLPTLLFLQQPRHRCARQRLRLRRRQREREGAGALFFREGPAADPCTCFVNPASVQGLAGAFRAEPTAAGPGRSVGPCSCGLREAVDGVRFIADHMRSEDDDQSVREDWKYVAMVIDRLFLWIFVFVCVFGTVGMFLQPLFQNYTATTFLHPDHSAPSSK
T4 sequence (P12391 31-464): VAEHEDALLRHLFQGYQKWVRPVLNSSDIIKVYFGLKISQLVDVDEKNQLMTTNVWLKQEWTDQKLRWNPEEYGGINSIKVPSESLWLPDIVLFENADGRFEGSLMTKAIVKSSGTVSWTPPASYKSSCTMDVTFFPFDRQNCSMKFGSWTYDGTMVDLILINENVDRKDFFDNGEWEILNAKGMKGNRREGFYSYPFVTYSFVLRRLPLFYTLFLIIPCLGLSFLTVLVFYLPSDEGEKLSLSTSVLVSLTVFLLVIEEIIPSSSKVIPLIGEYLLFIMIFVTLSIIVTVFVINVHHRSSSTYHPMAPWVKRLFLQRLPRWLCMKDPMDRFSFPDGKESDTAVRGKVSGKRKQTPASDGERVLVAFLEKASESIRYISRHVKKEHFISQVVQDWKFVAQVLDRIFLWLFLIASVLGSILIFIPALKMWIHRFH
Experimental: as §1, §2, §3, §4
as §5, with “Cells were voltage clamped at a holding potential of −50 mV.” left out

[3] = inhibition still present after 5-minute wash, read-out: IC50 (recovery)
[4] = decrease in net charge, 100 μM ACh co-applied with TMPH, read-out: IC50 (area)
[5] = decrease in peak current amplitude, 100 μM ACh co-applied with TMPH, read-out: IC50 (peak)

Structure (SMILES): CCCCCCC(=O)OC1CC(C)(C)NC(C)(C)C1 [TMPH, 2,2,6,6-tetramethylpiperidin-4-yl heptanoate]
- effect of TMPH-nicotine combination on response rates (rats; compared to vehicle, any dose combination tested, p>0.05): did not alter response rates
- nicotine-lever responding by TMPH alone (rats; doses at which antagonism was observed (data not shown)): did not produce nicotine-lever responding
- reversibility of inhibition ([1]; after a 5-minute wash): readily reversible
- IC50 ([1]; decrease in net charge, ACh co-applied with TMPH, read-out: IC50 (area)): 390 ± 50 nM
- IC50 ([1]; decrease in peak current amplitude, ACh co-applied with TMPH, read-out: IC50 (peak)): 276 ± 20 nM
- IC50 [1, 3]: 27000 ± 5500 nM
- IC50 net charge/IC50 peak ([1]; ratio): 1.4
- IC50 recovery/IC50 net charge ([1]; ratio): 69
- reversibility of inhibition ([2]; after a 5-minute wash): significant recovery
- IC50 ([2]; decrease in net charge, 300 μM ACh co-applied with TMPH, read-out: IC50 (area)): 1200 ± 200 nM
- IC50 ([2]; decrease in peak current amplitude, 300 μM ACh co-applied with TMPH, read-out: IC50 (peak)): 1000 ± 100 nM
- IC50 [2, 3]: 16000 ± 4000 nM
- IC50 net charge/IC50 peak ([2]; ratio): 1.2
- IC50 recovery/IC50 net charge ([2]; ratio): 13.3
- reversibility of inhibition (Rat α3β4; after a 5-minute wash): persisted after the wash
- IC50 (Rat α3β4; [4]): 75 ± 23 nM
- IC50 (Rat α3β4; [5]): 200 ± 50 nM
- IC50 (Rat α3β4; [3]): 85 ± 32 nM
- IC50 net charge/IC50 peak (Rat α3β4; ratio): 0.36
- IC50 recovery/IC50 net charge (Rat α3β4; ratio): 1.1
- IC50 (Rat α6/3β2β3; [4]): 1000 ± 300 nM
- IC50 (Rat α6/3β2β3; [5]): 60000 ± 20000 nM
- IC50 (Rat α6/3β2β3; [3]): 2300 ± 500 nM
- IC50 net charge/IC50 peak (Rat α6/3β2β3; ratio): .017
- IC50 recovery/IC50 net charge (Rat α6/3β2β3; ratio): 2.0
